Results published in ChEMBL document CHEMBL1143309, “Bisubstrate Inhibitors of the MYST HATs Esa1 and Tip60” (Bioorg Med Chem, 2009).

Experiments:
[1] = biological target: Histone acetyltransferase p300 (Homo sapiens, UniProt Q09472); assay: Inhibition of recombinant p300
[2] = Inhibition of His6x-tagged yeast recombinant Esa1 (105-445) expressed in Escherichia coli BL21 (DE3) by liquid scintillation; parameters: species or system Saccharomyces cerevisiae
[3] = biological target: T1, Histone acetyltransferase KAT5 (Homo sapiens, UniProt Q92993); assay: Inhibition of recombinant Tip60 (1-513) expressed in Escherichia coli BL21 (DE3) by liquid scintillation
T1 sequence (Q92993 whole entry, the tested form may be a part): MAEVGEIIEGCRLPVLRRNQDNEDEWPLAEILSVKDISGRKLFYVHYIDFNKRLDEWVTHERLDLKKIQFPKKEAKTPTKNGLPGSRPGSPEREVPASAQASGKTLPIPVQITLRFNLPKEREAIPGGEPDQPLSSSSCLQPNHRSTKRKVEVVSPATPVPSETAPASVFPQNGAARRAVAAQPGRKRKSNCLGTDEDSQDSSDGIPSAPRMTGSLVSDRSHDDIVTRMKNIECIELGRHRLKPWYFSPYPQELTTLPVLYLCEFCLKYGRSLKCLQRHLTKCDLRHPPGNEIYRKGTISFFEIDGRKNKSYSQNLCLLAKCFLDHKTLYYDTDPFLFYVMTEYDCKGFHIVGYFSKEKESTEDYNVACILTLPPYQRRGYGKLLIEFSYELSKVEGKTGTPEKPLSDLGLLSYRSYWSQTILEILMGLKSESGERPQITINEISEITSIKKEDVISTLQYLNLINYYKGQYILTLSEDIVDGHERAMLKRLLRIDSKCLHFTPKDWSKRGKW

[4] = biological target: Histone acetyltransferase KAT2B (Homo sapiens, UniProt Q92831); assay: Inhibition of PCAF HAT domain (493-658) expressed in Escherichia coli BL21 (DE3)
Sequence of Histone acetyltransferase KAT2B (Q92831 whole entry, the tested form may be a part): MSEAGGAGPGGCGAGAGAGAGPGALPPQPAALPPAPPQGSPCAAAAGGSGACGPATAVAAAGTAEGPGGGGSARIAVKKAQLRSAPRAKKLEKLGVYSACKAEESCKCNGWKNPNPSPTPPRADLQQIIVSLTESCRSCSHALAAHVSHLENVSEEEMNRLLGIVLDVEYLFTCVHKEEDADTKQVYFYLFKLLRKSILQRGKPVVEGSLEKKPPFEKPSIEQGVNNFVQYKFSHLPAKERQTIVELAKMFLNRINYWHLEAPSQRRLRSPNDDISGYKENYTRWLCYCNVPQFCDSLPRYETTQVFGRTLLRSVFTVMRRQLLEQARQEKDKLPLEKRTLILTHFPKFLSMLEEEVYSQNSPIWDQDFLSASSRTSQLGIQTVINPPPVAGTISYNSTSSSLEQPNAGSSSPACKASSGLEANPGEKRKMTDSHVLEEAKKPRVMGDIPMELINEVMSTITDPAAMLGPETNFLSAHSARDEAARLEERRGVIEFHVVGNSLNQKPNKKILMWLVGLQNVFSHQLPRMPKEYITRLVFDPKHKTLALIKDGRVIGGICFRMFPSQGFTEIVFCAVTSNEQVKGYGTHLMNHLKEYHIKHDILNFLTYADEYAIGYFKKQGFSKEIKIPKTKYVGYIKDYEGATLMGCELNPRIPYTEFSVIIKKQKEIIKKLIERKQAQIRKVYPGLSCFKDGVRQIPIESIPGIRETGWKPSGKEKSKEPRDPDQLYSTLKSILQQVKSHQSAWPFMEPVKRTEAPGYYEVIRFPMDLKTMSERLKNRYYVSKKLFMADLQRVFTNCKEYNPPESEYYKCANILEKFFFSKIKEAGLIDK

[5] = biological target: T1, Histone acetyltransferase KAT5; assay: Inhibition of TIP60 in human HeLa cell extracts by ELISA

Sequence of Histone acetyltransferase p300 (Q09472 whole entry): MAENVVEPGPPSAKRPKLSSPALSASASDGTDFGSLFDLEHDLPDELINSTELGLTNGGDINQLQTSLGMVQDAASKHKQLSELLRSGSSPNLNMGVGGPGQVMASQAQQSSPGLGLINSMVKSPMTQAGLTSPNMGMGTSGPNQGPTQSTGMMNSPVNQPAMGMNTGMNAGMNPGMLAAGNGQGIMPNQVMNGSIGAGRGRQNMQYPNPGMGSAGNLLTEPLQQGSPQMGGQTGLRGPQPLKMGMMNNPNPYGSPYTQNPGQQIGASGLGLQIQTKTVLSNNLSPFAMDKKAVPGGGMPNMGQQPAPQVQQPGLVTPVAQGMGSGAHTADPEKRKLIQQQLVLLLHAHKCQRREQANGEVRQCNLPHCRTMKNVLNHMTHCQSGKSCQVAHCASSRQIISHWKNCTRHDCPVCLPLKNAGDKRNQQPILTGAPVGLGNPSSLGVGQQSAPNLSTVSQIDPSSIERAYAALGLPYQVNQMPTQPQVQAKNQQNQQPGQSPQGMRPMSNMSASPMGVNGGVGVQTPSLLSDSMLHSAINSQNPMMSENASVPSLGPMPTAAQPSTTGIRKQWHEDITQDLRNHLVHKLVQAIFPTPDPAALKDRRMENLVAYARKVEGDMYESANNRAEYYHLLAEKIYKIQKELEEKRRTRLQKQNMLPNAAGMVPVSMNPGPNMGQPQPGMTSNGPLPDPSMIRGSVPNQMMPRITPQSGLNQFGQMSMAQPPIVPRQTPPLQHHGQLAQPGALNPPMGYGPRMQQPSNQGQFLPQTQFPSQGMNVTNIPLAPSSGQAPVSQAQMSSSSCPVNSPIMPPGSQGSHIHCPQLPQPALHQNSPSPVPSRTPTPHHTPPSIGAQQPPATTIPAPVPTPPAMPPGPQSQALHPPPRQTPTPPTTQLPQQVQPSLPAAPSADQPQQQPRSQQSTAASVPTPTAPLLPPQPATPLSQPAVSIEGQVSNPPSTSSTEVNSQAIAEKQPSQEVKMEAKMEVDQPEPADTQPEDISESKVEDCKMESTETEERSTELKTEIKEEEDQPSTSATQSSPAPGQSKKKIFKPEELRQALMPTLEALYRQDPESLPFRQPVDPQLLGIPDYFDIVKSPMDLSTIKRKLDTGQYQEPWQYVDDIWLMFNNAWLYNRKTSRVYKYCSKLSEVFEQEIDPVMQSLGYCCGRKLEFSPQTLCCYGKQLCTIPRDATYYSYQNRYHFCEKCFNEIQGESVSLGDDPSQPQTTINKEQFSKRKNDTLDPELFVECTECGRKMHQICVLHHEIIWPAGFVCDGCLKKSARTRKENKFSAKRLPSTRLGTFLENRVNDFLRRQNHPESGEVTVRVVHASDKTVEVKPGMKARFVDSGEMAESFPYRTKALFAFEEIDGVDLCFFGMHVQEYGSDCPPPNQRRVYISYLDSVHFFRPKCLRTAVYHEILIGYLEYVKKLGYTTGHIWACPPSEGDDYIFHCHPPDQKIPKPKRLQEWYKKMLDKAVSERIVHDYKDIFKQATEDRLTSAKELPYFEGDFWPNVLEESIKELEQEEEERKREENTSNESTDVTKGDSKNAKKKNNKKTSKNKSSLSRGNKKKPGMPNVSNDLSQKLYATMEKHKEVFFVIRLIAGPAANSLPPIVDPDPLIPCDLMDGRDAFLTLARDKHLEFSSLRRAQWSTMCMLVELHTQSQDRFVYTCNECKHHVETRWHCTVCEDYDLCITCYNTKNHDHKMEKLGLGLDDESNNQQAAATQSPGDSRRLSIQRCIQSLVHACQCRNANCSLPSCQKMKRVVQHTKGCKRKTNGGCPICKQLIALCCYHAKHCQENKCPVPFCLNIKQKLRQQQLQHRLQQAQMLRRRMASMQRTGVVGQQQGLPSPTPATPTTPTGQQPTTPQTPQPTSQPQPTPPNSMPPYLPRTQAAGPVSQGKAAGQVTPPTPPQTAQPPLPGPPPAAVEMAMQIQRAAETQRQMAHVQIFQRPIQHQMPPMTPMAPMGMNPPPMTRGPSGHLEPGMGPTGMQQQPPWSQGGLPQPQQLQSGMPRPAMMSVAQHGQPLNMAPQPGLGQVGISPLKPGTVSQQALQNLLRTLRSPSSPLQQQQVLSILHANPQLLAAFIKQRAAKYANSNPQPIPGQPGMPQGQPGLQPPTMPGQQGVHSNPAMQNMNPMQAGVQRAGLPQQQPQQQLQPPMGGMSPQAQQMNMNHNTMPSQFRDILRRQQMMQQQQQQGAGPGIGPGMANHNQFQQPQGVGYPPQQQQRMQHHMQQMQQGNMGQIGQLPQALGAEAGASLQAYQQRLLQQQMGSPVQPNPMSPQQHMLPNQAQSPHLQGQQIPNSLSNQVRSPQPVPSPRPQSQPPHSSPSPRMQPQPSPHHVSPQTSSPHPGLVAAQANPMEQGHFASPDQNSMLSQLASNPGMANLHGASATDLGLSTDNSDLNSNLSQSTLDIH

## CC(C)(COP(=O)(O)OP(=O)(O)OC[C@H]1O[C@@H](n2cnc3c(N)ncnc32)[C@H](O)[C@@H]1OP(=O)(O)O)[C@@H](O)C(=O)NCCC(=O)NCCS [COENZYME_A]
[1]
  IC50: 45.9 µM
[2]
  IC50: 68.6 µM
[3]
  IC50: 82.3 µM
[4]
  IC50: 41.9 µM

## CC(=O)N[C@@H](CCCCNC(=O)CSCCNC(=O)CCNC(=O)[C@H](O)C(C)(C)COP(=O)(O)OP(=O)(O)OC[C@H]1O[C@@H](n2cnc3c(N)ncnc32)[C@H](O)[C@@H]1OP(=O)(O)O)C(N)=O
[1]
  IC50: 0.98 µM
[2]
  IC50: 7 µM
[3]
  IC50: 29.8 µM
[4]
  IC50: 108 µM

## COc1cc(/C=C/C(=O)CC(=O)/C=C/c2ccc(O)c(OC)c2)ccc1O [CURCUMIN]
[2]
  IC50: > 150 µM
[3]
  IC50: > 200 µM

## C=CC/C=C\C/C=C\CCCCCCCc1cccc(O)c1C(=O)O [ANACARDIC ACID]
[1]
  IC50: > 1000 µM
[2]
  IC50: 297 µM
[5]
  IC50: 9 µM
[3]
  IC50: 375 µM
[4]
  IC50: 667 µM
